Experimental data reported in the supplement of paper PMC11451515.

Tested on: SEM cells
Assay: cell viability relative to DMSO control; higher = less cytotoxic
Conditions: 48 h
Procedure, shortened: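 NOMO1 or SEM (500 cells/well) or P12-Ichikawa (1000 cells/well) leukemia cells were adapted for at least four passages in each medium. They were seeded in 1536-well plates (5 μl) and pin-dosed with library compounds in DMSO over an 11-point threefold series, 47 μM to 0.79 nM. CellTiter-Glo One luminescence was read after 48 h at 37°C. Viability is the per-plate percentage relative to DMSO wells, with cell-free wells as background.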

COc1ccc(C2CNC(=O)C2)cc1OC1CCCC1 (stereo not drawn)
cell viability [%]
Conditions	HPLM + 10% dialyzed FBS	RPMI 5 mM glucose + 10% FBS	RPMI 5 mM glucose + 10% dialyzed FBS
0.000781 µM	80.8	82.9	85.9
0.00234 µM	93.4	88.6	89.7
0.00702 µM	91.4	89.9	101
0.0211 µM	89.7	81.7	89.8
0.0632 µM	106	100	95
0.19 µM	97.7	95.3	99.3
0.569 µM	107	102	94.6
1.71 µM	102	110	99.9
5.12 µM	108	97.3	101
15.4 µM	97	107	102
46.1 µM	101	90.2	103
